Where “and” joins values, the source holds several entries; their conditions need not be identical. Identical values can stand only once. Entries after “also recorded” stand apart in the source; their conditions may differ.
What was measured:
[1] = test system: harvested grapefruit; assay: Post-harvest water-loss protection in fruit (Example 5); assay type: in vivo; conditions: ambient storage
Description: Grapefruit trees were separated into three groups. […] Spray treatment formulations were applied using a commercial air-blast sprayer (250 gallons/acre). Size 40 fruit were harvested in quadruplicate, washed, and waxed on Day 0. The washed and waxed fruit as then stored at ambient conditions (approximately 70-75° F.) for 40 days. Size 40 fruit harvested on Day 1 were left unwashed and unwaxed prior to storage (unwashed and unwaxed samples). To test the ability of the aqueous formulation of the present invention to protect harvested fruit from water loss, stored fruit were observed 8 and 20 days after harvest.

[2] = test system: harvested grapefruit; assay: Post-harvest disease protection in fruit: healthy fruit, total decay, stem-end rind breakdown (Example 5); assay type: in vivo; conditions: after 40 days in storage
Description: (§1) Grapefruit trees were separated into three groups. […] Spray treatment formulations were applied using a commercial air-blast sprayer (250 gallons/acre). Size 40 fruit were harvested in quadruplicate, washed, and waxed on Day 0. The washed and waxed fruit as then stored at ambient conditions (approximately 70-75° F.) for 40 days. Size 40 fruit harvested on Day 1 were left unwashed and unwaxed prior to storage (unwashed and unwaxed samples). After 40 days in storage, no significant differences were observed between treated and untreated fruit in terms of the percentage of healthy fruit and the percentage of total decay in the two groups.

[3] = test system: Diplodia; assay: Post-harvest disease protection in fruit: Diplodia (Example 5); assay type: in vivo, grapefruit; conditions: after 40 days in storage
Description: as §1

[4] = test system: Anthracnose; assay: Post-harvest disease protection in fruit: Anthracnose (Example 5); assay type: in vivo, grapefruit; conditions: after 40 days in storage
Description: as §1

[5] = test system: Green Mold; assay: Post-harvest disease protection in fruit: Green Mold (Example 5); assay type: in vivo, grapefruit; conditions: after 40 days in storage
Description: as §1

[6] = test system: harvested grapefruit; assay: Water retention and disease protection in harvested grapefruit, pre-harvest spray (Example 3); assay type: in vivo
Description: Grapefruit trees were separated into three groups. Fruit in Groups 2 and 3 were treated prior to harvesting. Group 3 was treated with an aqueous treatment formulation comprising 95.70 wt % water, 2.00 wt % ACUSOL® 823, 0.10 wt % PVA (100,000 MW), 0.10 wt % ZnSO4 monohydrate, 0.10 wt % Antifoam® 8810, and 2.00 wt % TEA. […] Group 1 was untreated and served as a control. Groups 2 and 3 fruit were spray treated on Day −14 in the grove. Fruit was not de-greened. Fruit was weighed on Day 0, prior to packaging. Size 27-36 fruit were packed in honeycomb cartons, whereas size 40 fruit was packed in regular 4/5 cartons. Packed fruit was inspected on Day 68.

[7] = average over cartons of the group

O=P([O-])([O-])O.[K+].[K+] [DKP, di-potassium phosphate]
Wt. Loss (%) Day 8 ([1]; not washed and waxed): 1.43 a %
Wt. Loss (%) Day 20 ([1]; not washed and waxed): 4.08 a %
Wt. Loss (%) Day 8 ([1]; washed and waxed): 1.11 c %
Wt. Loss (%) Day 20 ([1]; washed and waxed): 3.89 a %
SERB (stem-end rind breakdown) (%) [2]: 7.15% and 7.15 ab %
Total Decay (%) [2]: 16.31%
Healthy (%) ([2]; washed and waxed fruit): 77.15%
Disease Diplodia (%) [3]: 6.5%
Disease Anthracnose (%) [4]: 5.9%
Disease Green Mold (%) [5]: 3.96%

O=P([O-])(O)O.[K+] [MKP, mono potassium phosphate]
Average Weight Difference (%) [6, 7]: 12.5%
Average Δ Weight (lbs) [6, 7]: 5 lbs
Weight Difference (%) ([6]; fruit size 27, Day 0 to Day 54): 11%
Δ Weight (lbs) ([6]; fruit size 27, Day 0 to Day 54): 4.4 lbs and 4.6 lbs
Weight Difference (%) ([6]; fruit size 32, Day 0 to Day 54): 14% and 13%
Δ Weight (lbs) ([6]; fruit size 32, Day 0 to Day 54): 5.6 lbs and 5.2 lbs
Disease (puncture) ([6]; fruit size 32, fruit per carton at inspection): 1 puncture
Weight Difference (%) ([6]; fruit size 36, Day 0 to Day 54): 14%
Δ Weight (lbs) ([6]; fruit size 36, Day 0 to Day 54): 5.6 lbs and 5.8 lbs
Disease ([6]; fruit size 36, fruit per carton at inspection): 4 rot and 3 rot
Weight Difference (%) ([6]; fruit size 40, Day 0 to Day 54): 12% and 11%
Δ Weight (lbs) ([6]; fruit size 40, Day 0 to Day 54): 4.6 lbs and 4.2 lbs
Disease ([6]; fruit size 40, fruit per carton at inspection): 1 rot
shine and firmness compared with control ([6]; packed fruit at inspection): negligible
Fruit Condition ([6]; remarks printed beside carton lines, probably for the whole group, footnote: ⅔ fruit per carton were very firm): no shine; also recorded: Like control; also recorded: very soft
